Columns and labels:
[1] = tested on: human cervical cancer cell line (HeLa); experiment: MTT in vitro tumor cell inhibition; type: cell-based; conditions: 3 days
Source text: (§1) An effective amount of the above compounds and/or the compositions containing the same used as an active ingredient have an effect on inhibiting the tumor cells. The present invention detects the inhibitory effect of the hydroxy-substituted benzophenone compounds on the proliferation of the in vitro cultured human tumor cells by the methylthiazolyl tetrazolium method.
(§2) The method is used to detect cell viability. […] Particles can be dissolved by dimethyl sulfoxide (DMSO) isopropyl alcohol or 10% acidified SDS (sodium dodecyl sulfate), and a microplate reader is used to measure the OD value at A570 wavelength, which indirectly reflects the number of live cells. The method is used for detection of the cytokines bioactivity, as well as anti-tumor drugs and tumor radiosensitivity and cytotoxicity test, and has the characteristics of being simple, fast, economical, sensitive and accurate and having good reproducibility and no need to use radionuclides. This method has been widely used in screening preclinical anticancer drugs and detecting the drug sensitivity of fresh tumor cells. The method is as below:
(§3) (1) The tumor cell suspension prepared by 0.25% of trypsin digestion and adjusted to a cell concentration of 10^5/ml with RPMI1640 containing 10% fetal calf serum is added to a 96-well plate with 100 μl for each well, cultured 24 hours, and then different dosages of drugs are added with 100 μl/well, for which, the negative control groups, positive control groups and withering wells are set, and 4 parallel wells are set for each group.
(§4) (2) They are continually cultured in incubator containing 5% of CO2 at 37° C. for 24 to 48 hours. MTT solution (5 g/L) is added to each well before the termination of the experiment. The OD value at A570 nm is detected by microplate reader. The OD value at A570 of the negative group without the addition of drugs is taken as a control. The cell survival rate and cell inhibition rate of drugs are calculated according to the following formula: Cell survival rate=(OD value of test group/OD value of control group)×100% Cell inhibition rate (%)=(OD value of the control group−OD value of the test group/(OD value of the control group−OD value of the blank group)
(§5) 1. Tumor cell lines: human glioma cell line (U251), human colon cancer cell line (LOVO), human hepatoma cell line (HepG2), human lung cancer cell line (PC84045), human endometrial carcinoma cell line (JEC), human renal carcinoma (GRC), human gastric cancer cell line (MCG804), human cervical cancer cell line (HeLa), human hepatocellular carcinoma cell line (BEL-7402) and human umbilical vein endothelial cell line (ECV304) purchased from Animal Experimental Center of Zhongshan Medical College, and preserved by the present laboratory.
(§6) The tumor cell lines are cultured in RPMI-1640 medium containing 15% of the newborn bovine serum in a conventional manner, placed in the humidification incubator containing 5% of CO2 for being cultured at 37° C., and are observed for growth by an inverted microscope. A subculture is conducted every about 3-5 days, the cells in logarithmic growth phase are adopted to be digested with 0.25% of trypsin, and the serum-free RPMI-1640 medium is used for culturing the cell suspension; the blood counting plate makes counting, the trypan blue exclusion tests the cell activity, and the cell viability>95% is used for formal tests.
(§7) Liquid preparation: the compounds are labeled with the codes respectively, DMSO is used to dissolve each compound, the bacterial filter is used to remove bacteria, and each compound is prepared into 10^−4 g/ml, 10^−5 g/ml, 10^−6 g/ml and preserved at 4° C. for use. […]

[2] = tested on: human colon cancer cell line (LOVO); experiment: MTT in vitro tumor cell inhibition; type: cell-based; conditions: 3 days; for Inhibitory rate %: 10^−4 g/ml
Source text: as §1, §2, §3, §4, §5, §6, §7

[3] = tested on: human endometrial carcinoma cell line (JEC); experiment: MTT in vitro tumor cell inhibition; type: cell-based; conditions: 3 days
Source text: as §1, §2, §3, §4, §5, §6, §7

[4] = tested on: human gastric cancer cell line (MCG804); experiment: MTT in vitro tumor cell inhibition; type: cell-based; conditions: 3 days
Source text: as §1, §2, §3, §4, §5, §6, §7

[5] = tested on: human glioma cell line (U251); experiment: MTT in vitro tumor cell inhibition; type: cell-based; conditions: 3 days
Source text: as §1, §2, §3, §4, §5, §6, §7

[6] = tested on: human hepatoma cell line (HepG2); experiment: MTT in vitro tumor cell inhibition; type: cell-based; conditions: 3 days
Source text: as §1, §2, §3, §4, §5, §6, §7

[7] = tested on: human lung cancer cell line (PC84045); experiment: MTT in vitro tumor cell inhibition; type: cell-based; conditions: 3 days
Source text: as §1, §2, §3, §4, §5, §6, §7

[8] = tested on: MCF7; experiment: MTT in vitro tumor cell inhibition; type: cell-based; conditions: 3 days
Source text: as §1, §2, §3, §4, §6
Liquid preparation: the compounds are labeled with the codes respectively, DMSO is used to dissolve each compound, the bacterial filter is used to remove bacteria, and each compound is prepared into 10^−4 g/ml, 10^−5 g/ml, 10^−6 g/ml and preserved at 4° C. for use.
MTT method: a bottle of 4-5 days old cells in the exponential growth phase are adopted to be cultured, and added with an appropriate amount of Trypsin-EDTA solution, so as to enable the adherent cells to fall off, and are prepared with 10 ml of RPMI-1640 medium containing 15% newborn bovine serum into suspensions; after stained with trypan blue, the cell number is counted on the blood counting plate to ensure that the live cells is more than 97%; the cell suspensions are diluted by the complete medium so that each […] of solution contains 5000-400000 cells; the 96-well plate is used with 200 μl of cell suspensions added into each. The 96-well plate is placed at 37° C. in 5% of CO2 containing incubator for 24 hours; the test compounds are diluted at 3 dilutions with 5 wells in parallel for each concentration; the serum-free RPMI1640 is used as the control group. […]

[9] = tested on: human umbilical vein endothelial cell line (ECV304); experiment: MTT in vitro cell inhibition; type: cell-based; conditions: 3 days
Source text: as §1, §2, §3, §4, §5, §6, §7

[10] = tested on: HPV 6/11 Virus; experiment: HPV detection via fluorescence quantitative PCR in genital warts tissue homogenate; design: species or system human papillomavirus; conditions: genital warts tissue homogenate, 37° C., 24 hours, FQ-PCR
Source text: (§8) The aforesaid compounds and/or compositions containing the same are effective in killing and inhibiting HPV type 6/11 and type 16/18, which can be used for the preparation of drugs for preventing and treating viral infection of HPV, preventing and treating genital warts, flat warts, common warts, vaginitis, cervicitis and cervical erosion, cervical cancer, esophageal cancer and other cancers caused by HPV. The present invention observes the effect of active ingredients and products by the detection of the change in the amount of the HPV virus through the real-time quantitative PCR. Such method has been applied in several publications (Youling C A I, et al., Chinese STD/AIDS, 2002, 8: 2,108; Yuansheng W U, Ruijiang F A N, et al., Practical Application of Integrated Chinese and Western Medicine in Clinics, 2003, 3: 2,1).
(§9) The microemulsion obtained in example 1 is used as a test sample and saline for blank control.
(§10) The standard clinical genital warts specimens from a variety of patients after being cut off are washed with saline for removing bloods, and are cut into pieces under aseptic conditions, added with saline in 3 times of their volumes to be uniformly mixed, grinded into homogenate and placed at −40° C. for use.
(§11) Each test sample drug microemulsion and the saline of 50 μl for each are respectively added with 50 μl the genital warts tissue homogenate, and incubated at 37° C. for 24 hours; tests are performed according to the operation procedure provided by the HPV6, 11 and 16, 18 type FQ-PCR diagnostic kits provided by Da'an Gene Diagnostic Center. 0.2 ml of DNA extracted by the conventional alkaline lysis method is put into the thin-walled reaction tube, and simultaneously added with primers, F-PROBE, DNTP, DNA polymerase, buffers and the like in a certain concentration; ABI PRISM™ 7700 fluorescence quantitative PCR amplifier is used to repeat 40 circulations each with 45 s at 93° C. and 120 s at 55° C. after predegeneration at 93° C. for 2 mins; the quantitative results are automatically analyzed by the computer software to calculate the quantitative results of the initial copy number. The data are shown in Table 2 (completed by Da'an Gene Clinical Test Center).

[11] = tested on: HPV16/18; experiment: as above; design: species or system human papillomavirus; conditions: genital warts tissue homogenate, 37° C., 24 hours, FQ-PCR
Source text: as §8, §9, §10, §11

Row | SMILES | Inhibitory rate % ([1]; 10^−4 g/ml) | Inhibitory rate % [2] | Inhibitory rate, sensitivity class ([2]; 10^−5 g/ml) | Inhibitory rate, sensitivity class ([2]; 10^−6 g/ml) | Inhibitory rate % ([3]; 10^−4 g/ml) | Inhibitory rate % ([3]; 10^−5 g/ml) | Inhibitory rate % ([4]; MCG804, 10^−4 g/ml) | Inhibitory rate % ([5]; U251, 10^−4 g/ml) | Inhibitory rate % ([6]; HepG2, 10^−4 g/ml) | Inhibitory rate % ([6]; HepG2, 10^−5 g/ml) | Inhibitory rate % ([7]; PC84045, 10^−4 g/ml) | Inhibitory rate % ([7]; PC84045, 10^−5 g/ml) | Inhibitory rate % ([7]; PC84045, 10^−6 g/ml) | Inhibitory rate % ([8]; MCF7, 10^−4 g/ml) | Inhibitory rate % ([9]; ECV304, 10^−4 g/ml) | Inhibitory rate % ([9]; ECV304, 10^−5 g/ml) | further results
1 | O=C(c1ccc(O)c(O)c1)c1cc(O)c(O)c(O)c1O [2,3,3′,4,4′,5-hexahydroxybenzophenone] | 58.94% | 75.61% | insensitive (<30% means insensitive) | insensitive (<30% means insensitive) | 79.84% | 32.36% | 71.91% | 64.27% | 77.03% | 55.49% | 80.43% | 70.86% | 41.369% | 65.36% | 70.81% | 43.47% | Inhibitory rate, sensitivity class ([1]; 10^−5 g/ml): insensitive (<30% means insensitive); Inhibitory rate, sensitivity class ([1]; 10^−6 g/ml): insensitive (<30% means insensitive); Inhibitory rate, sensitivity class ([3]; 10^−6 g/ml): insensitive (<30% means insensitive); Inhibitory rate, sensitivity class ([4]; MCG804, 10^−5 g/ml): insensitive (<30% means insensitive); Inhibitory rate, sensitivity class ([4]; MCG804, 10^−6 g/ml): insensitive (<30% means insensitive); Inhibitory rate, sensitivity class ([5]; U251, 10^−5 g/ml): insensitive (<30% means insensitive); Inhibitory rate, sensitivity class ([5]; U251, 10^−6 g/ml): insensitive (<30% means insensitive); Inhibitory rate, sensitivity class ([6]; HepG2, 10^−6 g/ml): insensitive (<30% means insensitive); Inhibitory rate, sensitivity class ([8]; MCF7, 10^−5 g/ml): insensitive (<30% means insensitive); Inhibitory rate, sensitivity class ([8]; MCF7, 10^−6 g/ml): insensitive (<30% means insensitive); Inhibitory rate, sensitivity class ([9]; ECV304, 10^−6 g/ml): insensitive (<30% means insensitive)
2 | O=C(c1ccccc1)c1ccc(O)cc1O [2,4-dihydroxybenzophenone] | 95.65% | 93.80% | insensitive (<30% means insensitive) | insensitive (<30% means insensitive) | 93.58% | 62.30% | 92.54% | 85.31% | 94.78% | 66.74% | 92.65% | 89.88% | 44.39% | 87.60% | 96.17% | 73.12% | Inhibitory rate % ([1]; 10^−5 g/ml): 48.96%; Inhibitory rate % ([1]; 10^−6 g/ml): 37.32%; Inhibitory rate % ([3]; 10^−6 g/ml): 32.56%; Inhibitory rate % ([4]; MCG804, 10^−5 g/ml): 86.35%; Inhibitory rate % ([4]; MCG804, 10^−6 g/ml): 41.35%; Inhibitory rate % ([5]; U251, 10^−5 g/ml): 67.25%; Inhibitory rate % ([5]; U251, 10^−6 g/ml): 31.21%; Inhibitory rate % ([6]; HepG2, 10^−6 g/ml): 58.63%; Inhibitory rate % ([8]; MCF7, 10^−5 g/ml): 68.62%; Inhibitory rate % ([8]; MCF7, 10^−6 g/ml): 28.57%; Inhibitory rate % ([9]; ECV304, 10^−6 g/ml): 45.37%
3 | CCCOC(=O)c1cc(O)c(O)c(O)c1 [Propyl gallate, propyl 3,4,5-trihydroxybenzoate, reference compound] | – | – | – | – | – | – | – | – | – | – | – | – | – | – | – | – | HPV 6/11 Virus [10]: 0 copy/ml; HPV16/18 [11]: 0 copy/ml

From patent US10716769B2 (GUANGZHOU JTREAT BIOSCI. LTD., priority 2015, dated 2020)
